Results reported in ChEMBL document CHEMBL3286122, “Structure-assisted discovery of the first non-retinoid ligands for Retinol-Binding Protein 4” (Bioorg Med Chem Lett, 2014).
Activity calls are given as the source filed them. The rule behind the calls is not given here.

What was measured:
[1] = target: T1, Retinol-binding protein 4 (Homo sapiens, UniProt P02753); assay: Displacement of [3H]-retinol from human recombinant RBP4 by scintillation proximity assay
[2] = target: T1, Retinol-binding protein 4; assay: Inhibition of human recombinant RBP4-transthyretin interaction by FRET analysis
Liver microsome [3] = assay: Drug metabolism in rat liver microsomes assessed as oxidation in pyridinyl piperazine region; format: ADME
Liver microsome [4] = assay: Drug metabolism in human liver microsomes assessed as oxidation in pyridinyl piperazine region; format: ADME
[5] = Clearance in rat at 0.5 mg/kg, iv; format: ADME, organism-based; set-up: dose 0.5 mg/kg, route intravenous; details: in vivo
[6] = Mean residence time in mouse at 5 mg/kg, po; format: ADME, organism-based; set-up: dose 5 mg/kg, route oral; details: in vivo
Mus musculus [7] = species on record: Mus musculus; assay: Reduction in RBP4 level in chow-fed B6D2F1 mouse after 4 hrs; format: functional, organism-based
[8] = Cmax in mouse at 5 mg/kg, po; format: ADME, organism-based; set-up: dose 5 mg/kg, route oral; details: in vivo
[9] = AUC in mouse at 5 mg/kg, po; format: ADME, organism-based; set-up: dose 5 mg/kg, route oral; details: plasma
[10] = Mean residence time in rat at 0.5 mg/kg, iv; format: ADME, organism-based; set-up: dose 0.5 mg/kg, route intravenous; details: in vivo
[11] = Volume of distribution at steady state in rat at 0.5 mg/kg, iv; format: ADME, organism-based; set-up: dose 0.5 mg/kg, route intravenous; details: in vivo, read-out: Vdss
[12] = Metabolic stability in rat liver microsomes assessed as compound remaining after 30 mins; format: ADME; details: read-out: Stability
[13] = AUC in rat at 0.5 mg/kg, iv; format: ADME, organism-based; set-up: dose 0.5 mg/kg, route intravenous; details: plasma
Mus musculus [14] = species on record: Mus musculus; assay: Reduction in retinol level in chow-fed B6D2F1 mouse after 4 hrs; format: functional, organism-based
Liver microsome [15] = assay: Drug metabolism in rat liver microsomes assessed as hydrolysis into primary urea; format: ADME
Liver microsome [16] = assay: Drug metabolism in human liver microsomes assessed as hydrolysis primary urea; format: ADME
[17] = AUC in mouse at 30 mg/kg, po; format: ADME, organism-based; set-up: dose 30 mg/kg, route oral; details: plasma
[18] = Mean residence time in mouse at 30 mg/kg, po; format: ADME, organism-based; set-up: dose 30 mg/kg, route oral; details: in vivo
Mus musculus [19] = species on record: Mus musculus; assay: Reduction in RBP4 level in chow-fed B6D2F1 mouse at 5 uM after 4 hrs; format: functional, organism-based
[20] = Cmax in mouse at 30 mg/kg, po; format: ADME, organism-based; set-up: dose 30 mg/kg, route oral; details: in vivo
Mus musculus [21] = species on record: Mus musculus; assay: Reduction in retinol level in chow-fed B6D2F1 mouse at 5 uM after 4 hrs; format: functional, organism-based

Row | SMILES | IC50 [1] | IC50 [2] | further results
1 | FC(F)(F)c1cccc(CN2CCN(c3ncccc3C(F)(F)F)CC2)c1 | > 30000 nM | > 10000 nM | –
2 | O=C(O)c1ccccc1NC(=O)N1CCC(c2ccccc2C(F)(F)F)CC1 | – | – | Drug metabolism (Liver microsome [3]): metabolite_notdetected; Drug metabolism (Liver microsome [4]): metabolite_notdetected; clearance [5]: 0.0833 mL/min/kg; MRT [6]: 5.4 h; Activity (Mus musculus [7]): Dose-dependent effect; EC50 (Mus musculus [7]; B6D2F1, 4 h): 980 nM; Cmax [8]: 2950 ng/mL; AUC [9]: 17200 ng·h/mL; MRT [10]: 9.7 h; Vd [11]: 0.045 L/kg; remaining at 0.5 h [12]: > 90%; AUC [13]: 10700 ng·h/mL; Activity (Mus musculus [14]): Dose-dependent effect; EC50 (Mus musculus [14]; B6D2F1, 4 h): 1100 nM
3 | O=C(c1cc(C(F)(F)F)[nH]n1)N1CCC(c2ccccc2C(F)(F)F)CC1 | 240 nM | 120 nM | –
4 | COc1ccc(Cl)cc1NC(=O)N1CCN(c2ncccc2C(F)(F)F)CC1C (stereo unspecified) | 450 nM | 350 nM | –
5 | COc1ccc(Cl)cc1NC(=O)N1CCN(c2ccccn2)CC1 | > 30000 nM | > 30000 nM | –
6 | COc1ccc(Cl)cc1NC(=O)C1CCN(c2ncccc2C(F)(F)F)CC1 | 1100 nM | – | –
7 | FC(F)(F)c1cccc(CN2CCN(c3ncnc4sc5c(c34)CCC5)CC2)c1 | 600 nM | 24 nM | –
8 | O=C(c1cccc(C(F)(F)F)c1)N1CCC(c2ccccc2C(F)(F)F)CC1 | 920 nM | 2700 nM | –
9 | O=C(c1nccs1)N1CCC(c2ccccc2C(F)(F)F)CC1 | 51 nM | 3 nM | –
10 | O=C(c1cn(Cc2ccccc2)cn1)N1CCN(c2ccccc2Cl)CC1 | 440 nM | – | –
11 | O=C(O)c1ccccc1NC(=O)N1CCN(c2ncccc2C(F)(F)F)CC1 | – | – | Drug metabolism (Liver microsome [15]): metabolite_notdetected; clearance [5]: 1.67 mL/min/kg; MRT [6]: 3.2 h; Cmax [8]: 1000 ng/mL; AUC [9]: 3650 ng·h/mL; MRT [10]: 2.6 h; Vd [11]: 0.26 L/kg; remaining at 0.5 h [12]: 51%; AUC [13]: 5080 ng·h/mL; Drug metabolism (Liver microsome [16]): metabolite_notdetected
12 | COc1ccc(Cl)cc1NC(=O)N1CCN(c2ncnc3sc4c(c23)CCC4)CC1 | 360 nM | 600 nM | –
13 | O=C(c1ccco1)N1CCC(c2ccccc2C(F)(F)F)CC1 | 120 nM | 52 nM | –
14 | Cn1cncc1C(=O)N1CCC(c2ccccc2C(F)(F)F)CC1 | 840 nM | 550 nM | –
15 | O=C(Cc1ccccc1C(F)(F)F)N1CCN(c2ncccc2C(F)(F)F)CC1 | 3610 nM | > 10000 nM | –
16 | COc1ccc(Cl)cc1NC(=O)N1CCN(c2ncccc2C(F)(F)F)CC1 | 230 nM | 130 nM | Drug metabolism (Liver microsome [15]): metabolite_detected; Drug metabolism (Liver microsome [3]): metabolite_detected; Drug metabolism (Liver microsome [4]): metabolite_detected; remaining at 0.5 h [12]: 1%; Drug metabolism (Liver microsome [16]): metabolite_detected
17 | COc1ccc(Cl)cc1NC(=O)N1CCN(c2ccccc2Cl)CC1 | 890 nM | 1300 nM | –
18 | COc1ccc(Cl)cc1NC(=O)N1CCN(c2ccccc2Cl)C(=O)C1 | 3600 nM | – | –

Row | SMILES | IC50 [1] | IC50 [2] | further results
19 | Cn1cnc(C(=O)N2CCC(c3ccccc3C(F)(F)F)CC2)c1 | 110 nM | 17 nM | –
20 | O=C(Cc1ccccc1C(F)(F)F)N1CCN(c2ncnc3sc4c(c23)CCC4)CC1 | 280 nM | 60 nM | –
21 | COc1ccc(Cl)cc1NC(=O)N1CCN(c2ccccc2)CC1 | 30000 nM | – | –
22 | COc1ccc(Cl)cc1NC(=O)N1CCCN(c2ncccc2C(F)(F)F)CC1 | 480 nM | 670 nM | –
23 | COc1ccc(Cl)cc1NC(=O)N1CCN(C)CC1 | > 30000 nM | – | –
24 | COC(=O)c1cccc(C(=O)N2CCC(c3ccccc3C(F)(F)F)CC2)c1 | 830 nM | 600 nM | –
25 | COc1ccc(Cl)cc1NC(=O)N1CCC(c2ccccc2C(F)(F)F)CC1 | 160 nM | 23 nM | –
26 | COc1ccc(Cl)cc1NC(=O)N1CCN(CCc2ccccc2)CC1 | > 30000 nM | > 30000 nM | –
27 | O=C(c1cnccc1C(F)(F)F)N1CCC(c2ccccc2C(F)(F)F)CC1 | 130 nM | 76 nM | –
28 | CC1=C(/C=C/C(C)=C/C=C/C(C)=C/C(=O)Nc2ccc(O)cc2)C(C)(C)CCC1 [FENRETINIDE] | – | – | AUC [17]: 1210 ng·h/mL; clearance [5]: 5 mL/min/kg; MRT [18]: 35 h; Activity (Mus musculus [19]): Active; MRT [10]: 10.5 h; Vd [11]: 3.2 L/kg; remaining at 0.5 h [12]: 67%; Cmax [20]: 65 ng/mL; AUC [13]: 1660 ng·h/mL; Activity (Mus musculus [21]): Active
29 | COc1ccc(Cl)cc1NC(=O)N1CCN(c2ncc(C(F)(F)F)cc2C(F)(F)F)CC1 | 2200 nM | – | –
30 | COc1ccc(Cl)cc1NC(=O)N1CCN(Cc2c(Cl)cccc2Cl)CC1 | 4500 nM | 7500 nM | –
31 | FC(F)(F)c1ccnc(N2CCC(c3ccccc3C(F)(F)F)CC2)n1 | 270 nM | 28 nM | –
32 | COc1ccc(Cl)cc1C(=O)N1CCN(c2ncnc3sc4c(c23)CCC4)C(C)C1 (stereo unspecified) | 830 nM | 1480 nM | –
33 | COC(=O)c1ccccc1NC(=O)N1CCC(c2ccccc2C(F)(F)F)CC1 | 91 nM | 18 nM | –
34 | COc1ccc(Cl)cc1NC(=O)N1CCN(c2ncccc2Cl)CC1 | 2500 nM | – | –
35 | COc1ccc(Cl)cc1NC(=O)N1CCN(c2ccccc2C(F)(F)F)CC1 | 70 nM | 17 nM | –
